Several values for one entry are separate records, joined by “and”; a condition that tells them apart may be missing. Equal entries are not always repeated.
What was measured:
Assay type in all cases: cell-based
[1] = target: T1, SCD5 (Homo sapiens, UniProt Q86SK9); test: Growth inhibition of humanized yeast strain expressing SCD5 as sole desaturase; details: humanized yeast strain expressing SCD5
T1 construct: host or cells: S. cerevisiae ole1Δ strain (W303 pdr1Δ pdr3Δ background), plasmid pRS316 with TDH3 promoter and CYC1 terminator
T1 sequence (Q86SK9 1-330): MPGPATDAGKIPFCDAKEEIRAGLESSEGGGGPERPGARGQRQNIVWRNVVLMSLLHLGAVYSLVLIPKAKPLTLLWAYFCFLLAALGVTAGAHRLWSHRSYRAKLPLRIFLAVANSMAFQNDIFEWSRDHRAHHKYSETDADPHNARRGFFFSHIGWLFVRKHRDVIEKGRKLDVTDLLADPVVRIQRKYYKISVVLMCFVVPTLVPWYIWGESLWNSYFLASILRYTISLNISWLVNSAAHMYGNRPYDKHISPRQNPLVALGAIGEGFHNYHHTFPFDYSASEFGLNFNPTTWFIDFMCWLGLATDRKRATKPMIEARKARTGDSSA
Summary of the method: (§1)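 Measured by optical density at 600 nm, growth of desaturase-dependent yeast (OLE1 deleted; human SCD1, human SCD5 or yeast Ole1 supplied from plasmid) was scored after 24 h (Ole1) or 40 h (SCD1, SCD5) at 30° C. in galactose media lacking uracil with DMSO-delivered compound.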

[2] = target: T2, Ole1 (Saccharomyces cerevisiae, UniProt P21147); test: Growth inhibition of yeast strain expressing Ole1 as sole desaturase; details: yeast strain expressing Ole1 as sole desaturase
T2 construct: expressed in transfected cells; host or cells: S. cerevisiae ole1Δ strain (W303 pdr1Δ pdr3Δ background), plasmid pRS316 with TDH3 promoter and CYC1 terminator
T2 sequence (P21147 1-510): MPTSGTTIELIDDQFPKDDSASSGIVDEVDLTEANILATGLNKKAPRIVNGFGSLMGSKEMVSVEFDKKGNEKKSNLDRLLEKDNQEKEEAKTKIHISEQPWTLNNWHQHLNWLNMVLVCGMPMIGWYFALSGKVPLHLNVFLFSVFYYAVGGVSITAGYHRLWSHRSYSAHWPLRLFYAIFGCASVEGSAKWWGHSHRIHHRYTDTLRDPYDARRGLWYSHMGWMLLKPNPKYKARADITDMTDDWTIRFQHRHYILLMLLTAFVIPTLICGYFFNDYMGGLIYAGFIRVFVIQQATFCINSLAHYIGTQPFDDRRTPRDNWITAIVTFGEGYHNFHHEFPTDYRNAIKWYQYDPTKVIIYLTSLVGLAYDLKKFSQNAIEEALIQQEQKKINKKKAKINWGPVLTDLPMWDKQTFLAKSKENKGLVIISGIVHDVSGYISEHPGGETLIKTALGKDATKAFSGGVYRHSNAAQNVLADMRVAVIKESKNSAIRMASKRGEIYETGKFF
Summary of the method: as §1

[3] = target: T3, SCD1 (Homo sapiens, UniProt O00767); test: Growth inhibition of humanized yeast strain expressing SCD1 as sole desaturase; details: humanized yeast strain expressing SCD1
T3 construct: host or cells: S. cerevisiae ole1Δ strain (W303 pdr1Δ pdr3Δ background), plasmid pRS316 with TDH3 promoter and CYC1 terminator
T3 sequence (O00767 1-359): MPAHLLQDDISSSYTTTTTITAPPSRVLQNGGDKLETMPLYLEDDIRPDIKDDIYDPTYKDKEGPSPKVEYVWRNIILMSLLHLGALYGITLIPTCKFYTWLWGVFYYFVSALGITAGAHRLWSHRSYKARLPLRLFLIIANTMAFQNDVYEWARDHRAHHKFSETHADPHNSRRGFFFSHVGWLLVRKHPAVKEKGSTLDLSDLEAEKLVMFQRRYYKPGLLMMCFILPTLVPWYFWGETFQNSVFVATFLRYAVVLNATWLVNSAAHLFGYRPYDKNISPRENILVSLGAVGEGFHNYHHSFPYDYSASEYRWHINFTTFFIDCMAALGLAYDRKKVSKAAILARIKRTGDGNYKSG
Summary of the method: as §1

SMILES | IC50 [1] [µM] | SCD5 % Max Inhibition [1] | IC50 [2] [µM] | OLE1 % Max Inhibition [2] | IC50 [3] [µM] | SCD1 % Max Inhibition [3]
COc1ccc(-c2noc(C3CCN(C(=O)CNCc4ccccc4)CC3)n2)cc1OC [Compound 30] | > 45 | 74.17% | > 45 | 100.46% | > 45 | 80.58%
COc1ccc(-c2noc(C3CCN(C(=O)CNC(=O)c4ccccc4)CC3)n2)cc1OC(C)C [Compound 274] | > 45 | 67.0% | > 45 | 75.9% | – | 75.3%
CCOc1cc(-c2noc(C3CCN(C(=O)CNC(=O)c4ccccc4)CC3)n2)ccc1OC [Compound 199] | > 45 | 3.87% | > 45 | 24.34% | > 45 | 27.85%
CC(C)c1cccc(C(=O)N2CCC(c3nc(-c4ccc5cnn(C)c5c4)no3)CC2)c1 [Compound 205] | > 45 | 1.01% | > 45 | 94.02% | > 45 | 31.70%
Cc1ccc(N2CC(C(=O)N3CCC(c4nc(N5CC6(COC6)C5)no4)CC3)CC2=O)nc1 (centres unmarked) [Compound 333] | > 45 | 62.3% | > 45 | 81.2% | > 45 | 55.6%
Cc1nn(C)c2cc(-c3noc(C4CCN(C(=O)c5ccc(C(C)C)cc5)CC4)n3)ccc12 [Compound 290] | > 45 | 8.8% | > 45 | 20.6% | – | 3.3%
Cc1nn(C)c2cc(-c3noc(C4CCN(C(=O)[C@H]5CCN(C(=O)c6ccccc6)C5)CC4)n3)ccc12 [Compound 239] | > 45 | 6.02% | > 45 | 29.21% | > 45 | 75.58%
Cc1nn(C)c2cc(-c3noc(C4CCN(C(=O)CNC(=O)c5ccc(Cl)cc5)CC4)n3)ccc12 [Compound 269] | > 45 | 8.38% and 5.30% | > 45 | 6.62% and 4.57% | – | 38.78% and 25.11%
Cc1nn(C)c2cc(-c3nc(C4CCN(C(=O)C5CC(=O)N(c6cccc(C#N)c6)C5)CC4)no3)ccc12 (centres unmarked) [Compound 331] | > 45 | 24.9% | > 45 | 13.7% | > 45 | 41.9%
Cc1ncc2ccc(-c3noc(C4CCN(C(=O)C5CC(=O)N(c6ccccc6)C5)CC4)n3)cn12 (centres unmarked) [Compound 216] | > 45 | 75.59% | 35.1 | 61.84% | > 45 | 83.82%
Cc1nn(C)c2cc(-c3nsc(C4CCN(C(=O)CNC(=O)c5ccccc5)CC4)n3)ccc12 [Compound 250] | > 45 | 14.48% | > 45 | 4.41% | – | 86.09%
Cc1nn(C)c2cc(-c3noc(C4CCN(C(=O)CNC(=O)c5ccsc5)CC4)n3)ccc12 [Compound 222] | > 45 | 1.92% | > 45 | 3.59% | > 45 | 40.42%
Cc1nn(C)c2cc(-c3noc(N4CCN(C(=O)c5ccccc5Cl)CC4)n3)ccc12 [Compound 262] | > 45 | 10.38% | > 45 | 23.99% | – | 41.84%
Cc1nn(C)c2cc(-c3noc(N4CCC(C(=O)N5CCO[C@H](c6ccccc6)C5)CC4)n3)ccc12 [Compound 211] | > 45 | 6.95% | > 45 | 2.65% | > 45 | 39.99%
CCOc1ccc(-c2noc(C3CCN(C(=O)[C@@H]4CN(c5ccccc5)C(=O)O4)CC3)n2)cc1OC [Compound 172] | 41.1 | 68.80% | > 45 | 3.99% | > 45 | 89.39%
COc1ccc(-c2noc(C3CCN(C(=O)[C@@H](CO)NC(=O)c4ccccc4)CC3)n2)cc1OC [Compound 185] | > 45 | 72.91% | > 45 | 93.51% | > 45 | 97.91%
Cc1nn(C)c2cc(-c3noc(N4CCN(C(=O)[C@H]5CC(=O)N(c6ccccc6)C5)CC4)n3)cnc12 [Compound 246] | > 45 | 66.03% | > 45 | 13.06% | – | 77.22%
CC(C)c1ccc(C(=O)N2CCC(c3nc(C(=O)Nc4cnn(C)c4)no3)CC2)cc1 [Compound 285] | > 45 | 30.09% | > 45 | 105.26% | – | 45.62%
CC(C)(C#N)C1CN(c2noc(C3CCN(C(=O)C4CC(=O)N(c5ccccc5)C4)CC3)n2)C1 (centres unmarked) [Compound 254] | > 45 | 83.13% | > 45 | 92.77% | > 45 | 69.80%
CC(C)n1cc2ccc(-c3noc(C4CCN(C(=O)CNC(=O)c5ccccc5)CC4)n3)cc2n1 [Compound 181] | > 45 | 81.40% | > 45 | 20.70% | > 45 | 88.32%
Cc1nn(C)c2cc(-c3nc([C@@H]4C[C@H]5CC[C@@H](C4)N5C(=O)OC(C)(C)C)no3)ccc12 [Compound 341] | > 45 | 45.6% | > 45 | 91.7% | > 45 | 45.2%

Source: patent US11873298B2, “Compounds and uses thereof” (JANSSEN PHARMACEUTICA NV, priority 2017, dated 2024)
